US20140255392A1 (BAYER INTELLECTUAL PROPERTY GMBH, priority 2011, published 2014)
pIC50: −log10 of the molar value.

Molecular target: T1, human kinase Mps-1 (Homo sapiens, UniProt P33981)
T1 construct: N-terminally GST-tagged human full length recombinant Mps-1 kinase; GST (N); purchased Invitrogen, Karslruhe, Germany PV4071
T1 sequence (P33981 1-857): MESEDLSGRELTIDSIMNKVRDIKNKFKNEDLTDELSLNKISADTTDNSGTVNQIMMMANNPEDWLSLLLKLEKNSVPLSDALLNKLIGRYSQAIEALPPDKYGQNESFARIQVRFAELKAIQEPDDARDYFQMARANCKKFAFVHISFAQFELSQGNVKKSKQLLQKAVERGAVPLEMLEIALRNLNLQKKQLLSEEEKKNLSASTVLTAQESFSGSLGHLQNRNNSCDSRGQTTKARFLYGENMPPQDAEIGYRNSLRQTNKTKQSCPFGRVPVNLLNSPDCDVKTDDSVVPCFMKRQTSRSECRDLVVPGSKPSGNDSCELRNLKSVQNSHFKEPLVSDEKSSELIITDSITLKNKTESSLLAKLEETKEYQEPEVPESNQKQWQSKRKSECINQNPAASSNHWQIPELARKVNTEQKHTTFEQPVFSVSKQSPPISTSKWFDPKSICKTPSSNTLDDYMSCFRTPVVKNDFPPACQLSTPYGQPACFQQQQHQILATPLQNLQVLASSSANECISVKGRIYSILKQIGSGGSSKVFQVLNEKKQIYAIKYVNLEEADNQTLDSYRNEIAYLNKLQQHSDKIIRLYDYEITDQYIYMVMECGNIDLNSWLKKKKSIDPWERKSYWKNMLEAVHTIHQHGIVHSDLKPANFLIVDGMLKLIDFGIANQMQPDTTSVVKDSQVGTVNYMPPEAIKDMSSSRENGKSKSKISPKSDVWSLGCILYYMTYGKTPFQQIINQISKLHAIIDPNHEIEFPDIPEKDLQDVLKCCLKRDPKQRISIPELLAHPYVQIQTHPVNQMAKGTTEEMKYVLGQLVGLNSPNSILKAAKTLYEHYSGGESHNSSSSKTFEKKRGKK
Test: Mps-1 kinase assay (TR-FRET)
Type: biochemical
Conditions: N-terminally GST-tagged human full length recombinant Mps-1; 10 μM ATP; 1 μM peptide substrate; 60 min at 22° C.
Protocol: The human kinase Mps-1 phosphorylates a biotinylated substrate peptide. Detection of the phosphorylated product is achieved by time-resolved fluorescence resonance energy transfer (TR-FRET) from Europium-labelled anti-phospho-Serine/Threonine antibody as donor to streptavidin labelled with cross-linked allophycocyanin (SA-XLent) as acceptor. Compounds are tested for their inhibition of the kinase activity.
N-terminally GST-tagged human full length recombinant Mps-1 kinase (purchased from Invitrogen, Karslruhe, Germany, cat. no PV4071) was used. As substrate for the kinase reaction a biotinylated peptide of the amino-acid sequence […] (C-terminus in amide form, purchased from Biosynthan GmbH, Berlin) was used.
The concentration of Mps-1 in the assay was adjusted to the activity of the enzyme lot and was chosen appropriate to have the assay in the linear range, typical enzyme concentrations were in the range of about 1 nM (final conc. in the 5 μl assay volume).
The resulting mixture was incubated 1 h at 22° C. to allow the binding of the phosphorylated peptide to the anti-phospho(Ser/Thr)-Europium-antibody. Subsequently the amount of phosphorylated substrate was evaluated by measurement of the resonance energy transfer from the Europium-labelled anti-phospho(Ser/Thr) antibody to the Streptavidin-XLent.

Compound	pIC50
COc1cccc(Oc2cc(NCCC(F)(F)F)c3ncc(-c4ccc(C(=O)NC5(C#N)CC5)c(C)c4)n3c2)c1 [Example 53, N-(1-cyanocyclopropyl)-4-{6-(3-methoxyphenoxy)-8-[(3,3,3-trifluoropropyl)amino]imidazo[1,2-a]pyridin-3-yl}-2-methylbenzamide]	7.71
Cc1cc(-c2cnc3c(NCCC(F)(F)F)cc(Oc4cccc(F)c4)cn23)ccc1C(=O)NC1CC1 [Example 6-1, N-cyclopropyl-4-{6-(3-fluorophenoxy)-8-[(3,3,3-trifluoropropyl)amino]imidazo[1,2-a]pyridin-3-yl}-2-methylbenzamide]	9.52
CNC(=O)c1ccc(-c2cnc3c(NCCC(F)(F)F)cc(Oc4ccc(OC)c(F)c4)cn23)cc1C [Example 106, 4-{6-(3-Fluoro-4-methoxyphenoxy)-8-[(3,3,3-trifluoropropyl)amino]imidazo[1,2-a]pyridin-3-yl}-N,2-dimethylbenzamide]	8.80
CNC(=O)c1ccc(-c2cnc3c(NCCC(F)(F)F)cc(Oc4cccc(Cl)c4)cn23)cc1C [Example 34, 4-{6-(3-chlorophenoxy)-8-[(3,3,3-trifluoropropyl)amino]imidazo[1,2-a]pyridin-3-yl}-N,2-dimethylbenzamide]	8.21
Cc1cc(-c2cnc3c(NCCC(F)(F)F)cc(-c4ccncc4)cn23)ccc1C(=O)NC1(C#N)CC1 [Example 91, N-(1-cyanocyclopropyl)-2-methyl-4-{6-(pyridin-4-yl)-8-[(3,3,3-trifluoropropyl)amino]imidazo[1,2-a]pyridin-3-yl}benzamide]	7.69
CNC(=O)c1ccc(-c2cnc3c(NCCC(F)(F)F)cc(Oc4ccccc4)cn23)cc1C [Example 59, N,2-dimethyl-4-{6-phenoxy-8-[(3,3,3-trifluoropropyl)amino]imidazo[1,2-a]pyridin-3-yl}benzamide]	8.82
Cc1cc(-c2cnc3c(NCCC(F)(F)F)cc(Oc4cccc(Cl)c4)cn23)ccc1C(=O)NC1(C#N)CC1 [Example 37, 4-{6-(3-chlorophenoxy)-8-[(3,3,3-trifluoropropyl)amino]imidazo[1,2-a]pyridin-3-yl}-N-(1-cyanocyclopropyl)-2-methylbenzamide]	7.64
COc1ccccc1-c1cc(NCCC(F)(F)F)c2ncc(-c3ccc(C(=O)NC4(C)CC4)c(C)c3)n2c1 [Example 80]	7.45
Cc1ccc(F)cc1Oc1cc(NCCC(F)(F)F)c2ncc(-c3ccc(C(=O)NC4CC4)c(C)c3)n2c1 [Example 19, N-cyclopropyl-4-{6-(5-fluoro-2-methylphenoxy)-8-[(3,3,3-trifluoropropyl)amino]imidazo[1,2-a]pyridin-3-yl}-2-methylbenzamide]	9.15
Cc1cc(-c2cnc3c(NCCC(F)(F)F)cc(Oc4cccc(F)c4)cn23)ccc1C(=O)N[C@H]1C[C@@H]1F (relative stereo) [Example 12 (rac.-A), N-[rel-(1S,2S)-2-fluorocyclopropyl]-4-{6-(3-fluorophenoxy)-8-[(3,3,3-trifluoropropyl)amino]imidazo[1,2-a]pyridin-3-yl}-2-methylbenzamide]	8.96
C=Cc1cc(NCCC(F)(F)F)c2ncc(-c3ccc(C(=O)NC)c(C)c3)n2c1 [Example 93, N,2-dimethyl-4-{8-[(3,3,3-trifluoropropyl)amino]-6-vinylimidazo[1,2-a]pyridin-3-yl}benzamide]	7.16
Cc1cc(-c2cnc3c(NCCC(F)(F)F)cc(Oc4cccc(F)c4)cn23)ccc1C(=O)NC1(C2CC2)CC1 [Example 49, N-[1,1′-bi(cyclopropyl)-1-0]-4-{6-(3-fluorophenoxy)-8-[(3,3,3-trifluoropropyl)amino]imidazo[1,2-a]pyridin-3-yl}-2-methylbenzamide]	7.01
CNC(=O)c1ccc(-c2cnc3c(NCCC(F)(F)F)cc(-c4ccccc4OC)cn23)cc1C [Example 81, 4-{6-(2-Methoxyphenyl)-8-[(3,3,3-trifluoropropyl)amino]imidazo[1,2-a]pyridin-3-yl}-N,2-dimethylbenzamide]	7.70
CCNC(=O)c1ccc(-c2cnc3c(NCCC(F)(F)F)cc(-c4ccncc4)cn23)cc1C [Example 89, N-ethyl-2-methyl-4-{6-(pyridin-4-yl)-8-[(3,3,3-trifluoropropyl)amino]imidazo[1,2-a]pyridin-3-yl}benzamide]	8.16
Cc1cc(-c2cnc3c(NCCC(F)(F)F)cc(Oc4cccc(F)c4)cn23)ccc1C(=O)NC1CC1F (single isomer, unassigned) [Example 12 (A or ent.-A), N-{[(1S,2S) or (1R,2R)]-2-fluorocyclopropyl}-4-{6-(3-fluorophenoxy)-8-[(3,3,3-trifluoropropyl)amino]imidazo[1,2-a]pyridin-3-yl}-2-methylbenzamide]	9.10

Second part, the molecule after the results:

pIC50	Compound
8.66	COc1ncc(Oc2cc(NCCC(F)(F)F)c3ncc(-c4ccc(C(=O)NC5CC5)c(C)c4)n3c2)cc1F [Example 178, N-cyclopropyl-4-{6-[(5-fluoro-6-methoxypyridin-3-yl)oxy]-8-[(3,3,3-trifluoropropyl)amino]imidazo[1,2-a]pyridin-3-yl}-2-methylbenzamide]
9.10	Cc1cc(-c2cnc3c(NCCC(F)(F)F)cc(-c4ccc(C(=O)NC5(C#N)CC5)c(C)c4)cn23)ccc1C(=O)NC1CC1 [Example 150, 4-(6-{4-[(1-cyanocyclopropyl)carbamoyl]-3-methylphenyl}-8-[(3,3,3-trifluoropropyl)amino]imidazo[1,2-a]pyridin-3-yl)-N-cyclopropyl-2-methylbenzamide]
6.60	CCNC(=O)c1ccc(-c2cnc3c(NCCC(F)(F)F)cc(C(C)O)cn23)cc1C (racemic) [Example 145, N-ethyl-4-{6-[(1RS)-1-hydroxyethyl]-8-[(3,3,3-trifluoropropyl)amino]imidazo[1,2-a]pyridin-3-yl}-2-methylbenzamide]
7.26	CNC(=O)c1ccc(-c2cnc3c(NCCC(F)(F)F)cc(/C=C\CO)cn23)cc1C [Example 119, 4-{6-[(1Z)-3-hydroxyprop-1-en-1-yl]-8-[(3,3,3-trifluoropropyl)amino]imidazo[1,2-a]pyridin-3-yl}-N,2-dimethylbenzamide]
6.61	CNC(=O)c1ccc(-c2cnc3c(NCCC(F)(F)F)cc(CCO)cn23)cc1C [Example 142, 4-{6-(2-Hydroxyethyl)-8-[(3,3,3-trifluoropropyl)amino]imidazo[1,2-a]pyridin-3-yl}-N,2-dimethylbenzamide]
6.94	COCCNc1cc(Oc2ccc(F)c(F)c2)cn2c(-c3ccc(C(=O)NC4CC4)c(C)c3)cnc12 [Example 171, N-cyclopropyl-4-{6-(3,4-difluorophenoxy)-8-[(2-methoxyethyl)amino]imidazo[1,2-a]pyridin-3-yl}-2-methylbenzamide]
7.90	CNC(=O)c1ccc(-c2cnc3c(NCCC(F)(F)F)cc(-c4ccc(C(=O)N[C@H]5C[C@@H]5F)c(C)c4)cn23)cc1C (relative stereo) [Example 154, 4-{6-(4-{[rel-(1S,2S)-2-fluorocyclopropyl]carbamoyl}-3-methylphenyl)-8-[(3,3,3-trifluoropropyl)amino]imidazo[1,2-a]pyridin-3-yl}-N,2-dimethylbenzamide]
8.96	Cc1cc(-c2cnc3c(NCCC(F)(F)F)cc(-c4ccccc4O)cn23)ccc1C(=O)NC1CC1 [Example 132, N-cyclopropyl-4-{6-(2-hydroxyphenyl)-8-[(3,3,3-trifluoropropyl)amino]imidazo[1,2-a]pyridin-3-yl}-2-methylbenzamide]
8.85	CCNC(=O)c1ccc(-c2cnc3c(NCCC(F)(F)F)cc(Oc4ccc(O)c(F)c4)cn23)cc1C [Example 131, N-ethyl-4-{6-(3-fluoro-4-hydroxyphenoxy)-8-[(3,3,3-trifluoropropyl)amino]imidazo[1,2-a]pyridin-3-yl}-2-methylbenzamide]
9.30	CNC(=O)c1ccc(-c2cc(NCCC(F)(F)F)c3ncc(-c4ccc(C(=O)NC5CC5)c(C)c4)n3c2)cc1C [Example 147, 4-{3-[4-(cyclopropylcarbamoyl)-3-methylphenyl]-8-[(3,3,3-trifluoropropyl)amino]imidazo[1,2-a]pyridin-6-yl}-N,2-dimethylbenzamide]
